Reference: BindingDB's records for PubMed 7796807 (Synaptic Pharmaceutical, 1995)

Target: 5-hydroxytryptamine receptor 4 (Rattus norvegicus, UniProt Q62758)
Sequence (Q62758 whole entry): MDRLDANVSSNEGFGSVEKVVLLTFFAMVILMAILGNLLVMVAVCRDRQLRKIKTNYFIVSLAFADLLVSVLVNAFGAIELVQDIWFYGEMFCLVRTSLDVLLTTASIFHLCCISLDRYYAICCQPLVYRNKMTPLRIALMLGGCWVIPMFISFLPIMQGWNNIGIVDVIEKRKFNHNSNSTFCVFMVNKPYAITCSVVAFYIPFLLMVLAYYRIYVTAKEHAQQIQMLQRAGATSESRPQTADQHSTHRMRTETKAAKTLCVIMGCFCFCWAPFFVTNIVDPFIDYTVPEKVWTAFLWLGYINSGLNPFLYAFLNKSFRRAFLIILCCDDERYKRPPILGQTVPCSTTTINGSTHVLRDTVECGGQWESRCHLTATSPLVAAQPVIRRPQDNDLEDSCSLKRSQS

| SMILES | Ki [nM] |
| --- | --- |
| CCCN(CCC)C1CCc2cccc(O)c2C1 (centres undefined) | 1000 |
| CN1C2CCC1CC(OC(=O)c1c[nH]c3ccccc13)C2 (centres undefined) | 544 |
| O=C(c1ccc(F)cc1)C1CCN(CCn2c(=O)[nH]c3ccccc3c2=O)CC1 [3-(2-{4-[(4-fluorophenyl)carbonyl]piperidin-1-yl}ethyl)-1,2,3,4-tetrahydroquinazoline-2,4-dione] | 1000 |
| Cn1cc(CCN)c2cc(O)ccc21 [5-HT,omega-N-Me] | 1450 |
| CCN(CC)C(=O)[C@@H]1C=C2c3cccc4[nH]cc(c34)C[C@H]2N(C)C1 [(4R,7R)-N,N-diethyl-6-methyl-6,11-diazatetracyclo[7.6.1.0^{2,7}.0^{12,16}]hexadeca-1(16),2,9,12,14-pentaene-4-carboxamide] | 1000 |
| COc1cc(N)c(Cl)cc1C(=O)NC1CCN2CCCC1C2 (centres undefined) [NSC_3035240] | 243 |
| CNS(=O)(=O)Cc1ccc2[nH]cc(CCN(C)C)c2c1 [Sumax] | 1000 |
| COc1cc(N)c(Cl)cc1C(=O)NC1CN2CCC1CC2 (centres undefined) [ZACOPRIDE,R] | 808 |
| COc1ccc2[nH]cc(CCN)c2c1 [tryptamine, 5-Methoxy] | 401 |
